Patent US20160175223A1, “ANTI-AGING COMPOSITIONS COMPRISING BILE ACID-FATTY ACID CONJUGATES” (GALDERM THERAPEUTICS LTD., priority 2013, published 2016)

Experiments:
human skin fibroblasts = assay: [3H] cholesterol efflux in skin fibroblasts; format: cell-based; settings: 20 hours incubation, compared to untreated cells
Procedure: (§1) Steamchol was incubated with human skin fibroblasts for 20 hours to measure cholesterol loading in the presence of [^3H] cholesterol. After series of washing and adding efflux containing cholesterol acceptors, medium was collected and centrifuged and cell associated cholesterol was compared to effluxed cholesterol in the presence and absence of the similar FABAC. This research project also included quantification of mRNA of ABCA1 and direct measurement of ABCA1.
(§2) Similarly, cells were pre-incubated with [^3H] cholesterol, washed four times and then placed in an incubation medium with or without Aramchol for 20 hours. Following the incubation, radioactivity was measured separately in the medium and in the cells. Cholesterol efflux percentage was calculated as radioactivity in medium divided by the total radioactivity (cells+medium).

ABCA1 [1] = assay: Direct measurement of ABCA1 protein in skin fibroblasts; format: cell-based, human; settings: efflux in the presence of FABAC, compared to untreated cells
Procedure: as §1, §2

[2] = test system: Full-thickness Epiderm cultures (EFT-400, MatTek); assay: Previous viability assay; format: cell-based; settings: concentrations of 40.0, 13.3, 4.4, 1.5 ug/mL
Excerpt: (§3) Full-thickness Epiderm cultures (EFT-400, MatTek) were used to determine toxicity in response to topical application of a test material (Steamchol).

[3] = test system: Full-thickness Epiderm cultures (EFT-400, MatTek); assay: Cytotoxicity assay (MTT) after topical application to full-thickness skin cultures; format: cell-based; settings: 24-hour exposure; for Cell Viability: 10 μL topical, MTT, vs untreated control
Procedure: as §3
The test material was provided as a powder. Test solutions were prepared by adding the appropriate amount of powdered material to 1 mL DMSO. Lower concentrations were made by serial dilution with 100% DMSO. The final test material concentrations and treatments are listed below: • 2% Steamchol (20,000 ug/mL) • 1% Steamchol (10,000 ug/mL) • 0.1% Steamchol (1000 ug/mL) • 0.01% Steamchol (100 ug/mL) • vehicle control (100% DMSO) • untreated control
Full-thickness skin cultures (EFT-400) were maintained as required to ensure viability; the cultures were equilibrated at 37° C. and 5% CO2 for 24 hours prior to application of test materials. Test material was applied to the surface of each culture using sterile techniques (10 μL applied to each culture). Two cultures were assigned to each treatment group. Two EFT cultures served as an untreated control (also referred to as negative control in FIG. 2), and two other EFT cultures served as a positive control (100 μL 1% Triton X-100).
Following a 24-hour incubation period with the test material, cultures were processed for cell toxicity analysis using an MTT [(3-4,5-dimethylthiazole-2-yl)2,5-diphenyltetrazoliumbromide] assay (reagents purchased from MatTek). Viable tissues converted MTT into a blue formazan salt that was detected by measuring absorbance at a specific wavelength of light (A570). Percent viability was calculated by comparing the A570 reading of the test cultures to the A570 of the untreated control culture, using the following formula: [Treated A570/Untreated A570]*100.

ABCA1 [4] = assay: Taqman gene expression in Epiderm FT skin culture: ABCA1 mRNA; format: cell-based, human; settings: 0.5% (5000 ug/mL) in DMSO, 24 hours post-application, vs DMSO control
Procedure: A full-thickness in vitro skin culture model, Epiderm FT (MatTek, MA), was treated with Steamchol. Steamchol in DMSO (0.5%, 5000 ug/mL) was applied to the surface of each test culture and cells were collected 24 hours post-application. Control cells were similarly treated with DMSO without Steamchol.
Tissues were collected in RNA later for gene expression analysis. Gene expression was analyzed using validated Taqman gene expression assays in Taqman Low Density Array (TLDA) format. 94 genes that regulate a variety of known functions in skin were analyzed including the ABCA1 and SCD1 genes. The experimental set up was conducted in a 96-well format using validated Taqman gene expression assays. Each gene was assayed in duplicates. Statistics were carried out using the StatMiner software v4.2 (unpaired t-tests, p≦0.05, N=4) to compare the Steamchol group to the DMSO control group.

Compound	Cholesterol efflux in fibroblasts (human skin fibroblasts)	ABCA1 protein concentration increase (ABCA1 [1])	Toxicity in viability assay [2]	Cell Viability ([3]; 0.01% Steamchol (100 ug/mL) in DMSO)	Cell Viability ([3]; 0.1% Steamchol (1000 ug/mL) in DMSO)	Cell Viability ([3]; 1% Steamchol (10,000 ug/mL) in DMSO)	Cell Viability ([3]; 2% Steamchol (20,000 ug/mL) in DMSO)	Cell viability compared to the untreated control ([3]; all dilutions tested (0.01%-2% in DMSO))	Change in mRNA levels of ABCA1 (ABCA1 [4])
CCCCCCCCCCCCCCCCCCCC(=O)N[C@H]1CC[C@@]2(C)[C@@H](C1)C[C@@H](O)[C@@H]1[C@@H]2C[C@H](O)[C@]2(C)[C@@H]([C@H](C)CCC(=O)O)CC[C@@H]12 [Aramchol, 3β-arachidylamido-7α,12α, dihidroxy-5β-cholan-24-oic acid]	significantly enhanced	approximately 2 fold	–	–	–	–	–	–	–
CCCCCCCCCCCCCCCCCC(=O)N[C@H]1CC[C@@]2(C)[C@@H](C1)C[C@@H](O)[C@@H]1[C@@H]2C[C@H](O)[C@]2(C)[C@@H]([C@H](C)CCC(=O)O)CC[C@@H]12 [Steamchol, 3β-stearylamido-7α,12α, dihidroxy-5β-cholan-24-oic acid]	significantly enhanced	approximately 2 fold	no toxicity was observed	100.41%	99.98%	96.88%	93.89%	~100%	No significant change
